Results from US11395847B2, “Acylated GLP-1/GLP-2 dual agonists” (Zealand Pharma A/S, priority 2016, dated 2022).
*1 amine or outer side, *2 acyl side, *3 side chain or, on linkers, in order; H or OH if unused. Where a SMILES comes first, the peptide text is derived from it. Side-chain parts run from the residue outwards. [ ]: non-standard residue; d: D form. The star is where a group is joined. C20 diacid = O=C(O)CCCCCCCCCCCCCCCCCCC(=O)*; γGlu = O=C(O)[C@H](CCC(=O)[*:2])N[*:1]; AEEA = NCCOCCOCC(=O)O; Aib = CC(C)(N)C(=O)O

Experiment: Chemical stability (RP-HPLC normalized purity after incubation at 40° C.)
Assay type: physicochemical
Details: pH 7, 40° C., 14-day incubation, 0.2 mg/ml, normalized purity (area-%)
Procedure: Samples of each test peptide were dissolved in MILLIQ™ water, and the pH of the solution was adjusted to pH 6, 7, 7.5 or 9 using either HCl or NaOH. The final peptide concentration was 0.2 mg/ml. Samples were placed in glass vials and incubated at 40° C. The samples were analyzed by RP-HPLC on a C18 column with gradient elution using an acetonitrile/TFA/water eluent system. The area-percentage (area-%) of the main peak after incubation time T=t (relative to time T=0) was determined by UV spectroscopy at 220 nm.
The purity was first determined as follows: Purity(area-%)=(area of main peak/total area of all peaks)×100.
The purity was then normalized between time points by setting purity at time 0 (T=0) to 100 for each pH value for a given peptide, as follows: Normalized area-% at time t(T=t)=[area-%(T=t)/area-%(T=0)]×100.
The chemical stability assessment results after 14-day incubation (in the form of normalized purity values) are summarized in Table 4.

SMILES	pH 7 normalized stability
CC[C@H](C)[C@H](NC(=O)[C@H](Cc1ccccc1)NC(=O)[C@H](CC(=O)O)NC(=O)[C@H](CCCCNC(=O)COCCOCCNC(=O)COCCOCCNC(=O)[C@H](CCCCN)NC(=O)[C@H](CCC(=O)O)NC(=O)[C@H](CCCCN)NC(=O)CC[C@H](NC(=O)CCCCCCCCCCCCCCCCCCC(=O)O)C(=O)O)NC(=O)[C@H](C)NC(=O)[C@H](C)NC(=O)[C@H](CCC(N)=O)NC(=O)[C@H](CCC(=O)O)NC(=O)[C@H](CC(=O)O)NC(=O)[C@H](CC(C)C)NC(=O)[C@@H](NC(=O)[C@@H](NC(=O)[C@H](C)NC(=O)[C@H](CC(C)C)NC(=O)[C@H](CCC(=O)O)NC(=O)[C@H](CO)NC(=O)[C@@H](NC(=O)[C@H](Cc1ccccc1)NC(=O)[C@@H](NC(=O)CNC(=O)[C@H](CCC(=O)O)NC(=O)C(C)(C)NC(=O)[C@@H](N)Cc1c[nH]cn1)[C@@H](C)O)[C@@H](C)O)[C@@H](C)O)[C@@H](C)CC)C(=O)N[C@@H](C)C(=O)N[C@@H](Cc1c[nH]c2ccccc12)C(=O)N[C@@H](CC(C)C)C(=O)N[C@H](C(=O)N[C@@H](CCC(=O)O)C(=O)N[C@@H](Cc1c[nH]cn1)C(=O)N[C@@H](CCCCN)C(=O)N[C@H](C(=O)N[C@H](C(=O)N[C@@H](CC(=O)O)C(=O)O)[C@@H](C)O)[C@@H](C)CC)[C@@H](C)CC [Compound 67] (H-H[Aib]EGTFTSELATILDEQAAK([AEEA-AEEA-Lys-Glu-Lys-γGlu-C20 diacid])DFIAWLIEHKITD-OH)	A (>90% normalised stability)
CC[C@H](C)[C@H](NC(=O)[C@H](Cc1ccccc1)NC(=O)[C@H](CC(=O)O)NC(=O)[C@H](CCCCNC(=O)COCCOCCNC(=O)[C@H](CCCCN)NC(=O)[C@H](CCC(=O)O)NC(=O)[C@H](CCCCN)NC(=O)CC[C@H](NC(=O)CCCCCCCCCCCCCCCCCCC(=O)O)C(=O)O)NC(=O)[C@H](C)NC(=O)[C@H](C)NC(=O)[C@H](CCCCN)NC(=O)[C@H](C)NC(=O)[C@H](CC(=O)O)NC(=O)[C@H](CC(C)C)NC(=O)[C@@H](NC(=O)[C@@H](NC(=O)[C@H](C)NC(=O)[C@H](CC(C)C)NC(=O)[C@H](CCC(=O)O)NC(=O)[C@H](CO)NC(=O)[C@@H](NC(=O)[C@H](Cc1ccccc1)NC(=O)[C@H](CO)NC(=O)CNC(=O)[C@H](CCC(=O)O)NC(=O)C(C)(C)NC(=O)[C@@H](N)Cc1c[nH]cn1)[C@@H](C)O)[C@@H](C)O)[C@@H](C)CC)C(=O)N[C@@H](C)C(=O)N[C@@H](Cc1c[nH]c2ccccc12)C(=O)N[C@@H](CC(C)C)C(=O)N[C@H](C(=O)N[C@@H](CCC(=O)O)C(=O)N[C@@H](Cc1c[nH]cn1)C(=O)N[C@@H](CCCCN)C(=O)N[C@H](C(=O)N[C@H](C(=O)N[C@@H](CC(=O)O)C(=O)O)[C@@H](C)O)[C@@H](C)CC)[C@@H](C)CC [Compound 68] (HELM PEPTIDE1{H.[Aib].E.G.S.F.T.S.E.L.A.T.I.L.D.A.K.A.A.K.D.F.I.A.W.L.I.E.H.K.I.T.D}|PEPTIDE2{[O=C(O)CCCCCCCCCCCCCCCCCCC(=O)[*:2]].[gGlu].K.E.K.[O=C(COCCOCCN[*:1])[*:2]]}$PEPTIDE1,PEPTIDE2,20:R3-6:R2$$$V2.0)	A (>90% normalised stability)
